Laboratory results as given in ChEMBL document CHEMBL1201862, “PubChem BioAssay data set” (2004).
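1) Cells in 96-well plates. 2) Compound, 48 h, 5 concentrations. 3) Linear interpolation between surrounding doses. 4) Unreached endpoint = highest concentration. The concentration for 50% growth inhibition is given as GI50.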 The source made the active and inactive calls. No stated cut-off is given here; in the data, active = GI50 up to about 1.1 µM and inactive = higher.

Key:
Assay in all cases: growth of human tumour cells (NCI), 48 h
Malme-3M = tested on: Malme-3M
A549 = tested on: A549
UO-31 = tested on: UO-31
OVCAR-3 = tested on: OVCAR-3
M14 = tested on: M14
OVCAR-4 = tested on: OVCAR-4
IGROV-1 = tested on: IGROV-1
MCF7 = tested on: MCF7
SF-295 = tested on: SF-295
COLO 205 = tested on: COLO 205
RPMI-8226 = tested on: RPMI-8226
SNB-75 = tested on: SNB-75
SF-539 = tested on: SF-539
SN12C = tested on: SN12C
UACC-62 = tested on: UACC-62
HCT-116 = tested on: HCT-116
NCI-H226 = tested on: NCI-H226
SK-MEL-28 = tested on: SK-MEL-28
KM12 = tested on: KM12
U-251 = tested on: U-251

| SMILES | GI50 (Malme-3M) | GI50 (A549) | GI50 (UO-31) | GI50 (OVCAR-3) | GI50 (M14) | GI50 (OVCAR-4) | GI50 (IGROV-1) | GI50 (MCF7) | GI50 (SF-295) | GI50 (COLO 205) | GI50 (RPMI-8226) | GI50 (SNB-75) | GI50 (SF-539) | GI50 (SN12C) | GI50 (UACC-62) | GI50 (HCT-116) | GI50 (NCI-H226) | GI50 (SK-MEL-28) | GI50 (KM12) | GI50 (U-251) |
| --- | --- | --- | --- | --- | --- | --- | --- | --- | --- | --- | --- | --- | --- | --- | --- | --- | --- | --- | --- | --- |
| CS/C(C#N)=C(\C#N)SC | 11.4 µM (inactive) | 30.4 µM (inactive) | 4.18 µM (inactive) | 1.77 µM (inactive) | 2.48 µM (inactive) | 13.4 µM (inactive) | 6.25 µM (inactive) | 2.22 µM (inactive) | 18.5 µM (inactive) | 3.06 µM (inactive) | 1.88 µM (inactive) | 52.2 µM (inactive) | 9.64 µM (inactive) | 11.2 µM (inactive) | 2.94 µM (inactive) | 20.9 µM (inactive) | 2.55 µM (inactive) | 10.7 µM (inactive) | 13.9 µM (inactive) | 4.45 µM (inactive) |
| CCOC(=O)C1=C(C)NC(=O)NC1c1coc2cc(C)cc(C)c2c1=O (centres undefined) | 13 µM (inactive) | 46.9 µM (inactive) | 44 µM (inactive) | 24.5 µM (inactive) | 34.7 µM (inactive) | 55.3 µM (inactive) | > 60.1 µM (inactive) | 36.2 µM (inactive) | 47.6 µM (inactive) | 54.6 µM (inactive) | 41.7 µM (inactive) | 3.27 µM (inactive) | 75.9 µM (inactive) | 58.2 µM (inactive) | 61.5 µM (inactive) | 36.9 µM (inactive) | > 100 µM (inactive) | > 100 µM (inactive) | 30 µM (inactive) | 32.1 µM (inactive) |
| O=C(NC(CS)C(=O)O)c1c2ccccc2nc2ccccc12 (centres undefined) | 15.2 µM (inactive) | 19.7 µM (inactive) | 3.87 µM (inactive) | > 100 µM (inactive) | > 100 µM (inactive) | > 100 µM (inactive) | 38 µM (inactive) | 49.3 µM (inactive) | 21.5 µM (inactive) | 4.55 µM (inactive) | 54.1 µM (inactive) | 83.8 µM (inactive) | > 100 µM (inactive) | > 100 µM (inactive) | 48.8 µM (inactive) | 13.6 µM (inactive) | < 0.01 µM (active) | 74.1 µM (inactive) | 24.8 µM (inactive) | 75 µM (inactive) |
| Cc1cc2nc(O)c(C(C)C(=O)c3ccc(Cl)cc3)nc2cc1C (centres undefined) | 71.6 µM (inactive) | 39.8 µM (inactive) | 46.9 µM (inactive) | 49.1 µM (inactive) | 45.6 µM (inactive) | 31.6 µM (inactive) | 61.9 µM (inactive) | 27.5 µM (inactive) | 31.7 µM (inactive) | 22 µM (inactive) | 43.2 µM (inactive) | 35.4 µM (inactive) | 23.4 µM (inactive) | 50.7 µM (inactive) | 46.9 µM (inactive) | 33.6 µM (inactive) | 35 µM (inactive) | 50.8 µM (inactive) | 29.8 µM (inactive) | 36.2 µM (inactive) |
| Cc1ccc(S(=O)(=O)N/N=C/C(Br)=C(/Br)C(=O)O)cc1 | 4.39 µM (inactive) | 19.5 µM (inactive) | 4.66 µM (inactive) | 6.97 µM (inactive) | 4.53 µM (inactive) | 6.22 µM (inactive) | 16.1 µM (inactive) | 7.41 µM (inactive) | 14.1 µM (inactive) | 3.44 µM (inactive) | 1.66 µM (inactive) | 22.1 µM (inactive) | 5.69 µM (inactive) | 9.93 µM (inactive) | 8.17 µM (inactive) | 1.91 µM (inactive) | 8.55 µM (inactive) | 2.94 µM (inactive) | 10.6 µM (inactive) | 4.22 µM (inactive) |
| CC(=O)O[C@H]1C(=O)[C@@]2(C)[C@H]([C@H](OC(=O)C3CCCCC3)[C@]3(O)C[C@H](OC(=O)[C@H](O)[C@@H](NC(=O)C4CCCCC4)C4CCCCC4)C(C)=C1C3(C)C)[C@]1(OC(C)=O)CO[C@@H]1C[C@@H]2O | 0.0323 µM (active) | 0.0326 µM (active) | 0.344 µM (active) | 0.00386 µM (active) | 0.00889 µM (active) | 0.538 µM (active) | 0.027 µM (active) | 0.00569 µM (active) | 0.0321 µM (active) | 0.00615 µM (active) | 0.0025 µM (active) | 0.0508 µM (active) | 0.0366 µM (active) | 0.0942 µM (active) | 0.0163 µM (active) | 0.00439 µM (active) | 0.0311 µM (active) | 0.479 µM (active) | 0.0101 µM (active) | 0.0117 µM (active) |
| O=C1/C(=C(/Br)I)c2ccccc2-c2ccccc21 | 3.56 µM (inactive) | 15.9 µM (inactive) | 2.4 µM (inactive) | 9.98 µM (inactive) | 9.95 µM (inactive) | 14.7 µM (inactive) | 13.2 µM (inactive) | 8.85 µM (inactive) | 17 µM (inactive) | 2.04 µM (inactive) | 2.97 µM (inactive) | 15.5 µM (inactive) | 14.6 µM (inactive) | 16.2 µM (inactive) | 7.19 µM (inactive) | 7.85 µM (inactive) | 18.8 µM (inactive) | 21.5 µM (inactive) | 14.2 µM (inactive) | 12.6 µM (inactive) |
| CC(C)CCC[C@@H](C)[C@H]1CC[C@H]2[C@@H]3CC=C4C[C@@H](OC(=O)c5cccc6c(=O)c7ccccc7[nH]c56)CC[C@]4(C)[C@H]3CC[C@]12C | > 75 µM (inactive) | > 75 µM (inactive) | > 75 µM (inactive) | > 75 µM (inactive) | > 75 µM (inactive) | 3.5 µM (inactive) | > 75 µM (inactive) | > 75 µM (inactive) | > 75 µM (inactive) | > 75 µM (inactive) | > 75 µM (inactive) | > 75 µM (inactive) | > 75 µM (inactive) | 1.92 µM (inactive) | > 75 µM (inactive) | – | > 75 µM (inactive) | > 75 µM (inactive) | > 75 µM (inactive) | > 75 µM (inactive) |
| O=C1C(Br)=CC2(C=C1Br)CCNC1=C2C(=O)c2ncccc2C1=O | 1.09 µM (active) | 1.44 µM (inactive) | 1.07 µM (active) | 1.62 µM (inactive) | 1.55 µM (inactive) | 1.22 µM (inactive) | 0.54 µM (active) | 1.14 µM (inactive) | 1.37 µM (inactive) | 1.89 µM (inactive) | 0.621 µM (active) | 1.4 µM (inactive) | 0.318 µM (active) | 1.21 µM (inactive) | 0.641 µM (active) | 0.634 µM (active) | 1.67 µM (inactive) | 0.443 µM (active) | 1.25 µM (inactive) | 1.31 µM (inactive) |
| Cc1cccc(NC(=O)c2cccc([N+](=O)[O-])c2O)c1C | 33.8 µM (inactive) | 21.5 µM (inactive) | 17.9 µM (inactive) | 18.1 µM (inactive) | 41.5 µM (inactive) | 26.6 µM (inactive) | 26.7 µM (inactive) | 27.4 µM (inactive) | 24.4 µM (inactive) | 18.1 µM (inactive) | 3.14 µM (inactive) | 22.8 µM (inactive) | 27.5 µM (inactive) | 27.4 µM (inactive) | 28 µM (inactive) | 28.2 µM (inactive) | 22.1 µM (inactive) | 44.5 µM (inactive) | 23.6 µM (inactive) | 25.3 µM (inactive) |
